Assay results published in patent US20190002942A1, “ANTIBIOTIC FIIRV 104/18 COMPLEX AND THE ISOLATED INDIVIDUAL FACTORS THEREOF” (Fondazione Istituto Insubrico di Ricerca per la Vita, priority 2015, published 2019).
≈ marks a conversion by molar mass, not a printed value. Read-outs that look alike come from different tables or passages of the source.

Key:
[1] = system: Gram-positive susceptible, resistant and multi-resistant pathogenic bacteria; experiment: Growth inhibition of Gram-positive bacteria (summary); format: cell-based; conditions: Gram positive bacteria: Staphylococci incl. MRSA and MR coagulase-negative, Streptococci, Enterococci incl. VanA
Description: (§1) Antimicrobial activity of the antibiotic FIIRV 104/18 complex is determined by the broth microdilution method according to the procedures published by the Clinical and Laboratory Standards Institute (CLSI), formerly the National Committee for Clinical Laboratory Standards (NCCLS) (document M07-A9). Inocula are: 2-5×10^5 CFU/mL for Gram positive and Gram negative bacteria; 10^4 CFU/mL for Candida albicans.
(§2) The media used are: cation adjusted Mueller Hinton broth (CAMHB) for Staphylococci, Enterococci, Moraxella catarrhalis, Escherichia coli; Todd Hewitt broth (THB) for Streptococci; RPMI 1640 Medium for C. albicans. The effect of 30% bovine serum is determined under the same experimental conditions.
(§3) Cultures are incubated at 35° C. in air. After 18-24 hours visual readings are performed and MICs determined. The MIC (Minimal Inhibitory Concentration) is defined as the lower concentration of antibiotic at which there is no visible growth. The strains used are clinical isolates or strains from American Type Culture Collection (ATCC). Individual factors of antibiotic FIIRV 104/18 are dissolved in DMSO to obtain a 1000 μg/mL stock solution, and subsequently diluted in water to obtain working solution.

L2048 B. cenocepacia = experiment: MIC, broth microdilution (CLSI); format: cell-based; conditions: Burkholderia cenocepacia
Description: as §1, §2, §3

[2] = system: L819 S. aureus Smith ATCC19636; experiment: MIC, broth microdilution (CLSI); format: cell-based, Staphylococcus aureus; conditions: Staphylococcus aureus
Description: (§4) Inocula are: 2-5×10^5 CFU/mL for Gram positive and Gram negative bacteria; 10^4 CFU/mL for Candida albicans.
(§5) The effect of 30% bovine serum is determined under the same experimental conditions.
(§6) Cultures are incubated at 35° C. in air. After 18-24 hours visual readings are performed and MICs determined. The MIC (Minimal Inhibitory Concentration) is defined as the lower concentration of antibiotic at which there is no visible growth. The strains used are clinical isolates or strains from American Type Culture Collection (ATCC).

L569 E. faecium VanA = experiment: MIC, broth microdilution (CLSI); format: cell-based, Enterococcus faecium; conditions: Enterococcus faecium, L569 E. faecium VanA
Description: as §4, §5, §6

L560 E. faecalis VanA = experiment: MIC, broth microdilution (CLSI); format: cell-based, Enterococcus faecalis; conditions: Enterococcus faecalis, L560 E. faecalis VanA
Description: as §4, §5, §6

L145 C. albicans = experiment: MIC, broth microdilution (CLSI); format: cell-based, Candida albicans
Description: as §1, §2, §3

L3030 A. baumannii = experiment: MIC, broth microdilution (CLSI); format: cell-based; conditions: Acinetobacter baumannii
Description: as §4, §5, §6

L47 E. coli, SKF 12140 = experiment: MIC, broth microdilution (CLSI); format: cell-based; conditions: Escherichia coli
Description: as §4, §5, §6

L1577 S. epidermidis = experiment: MIC, broth microdilution (CLSI); format: cell-based; conditions: Staphylococcus epidermidis
Description: as §4, §5, §6

L568 E. faecium = experiment: MIC, broth microdilution (CLSI); format: cell-based; conditions: Enterococcus faecium
Description: as §4, §5, §6

L1400 S. aureus MRSA = experiment: MIC, broth microdilution (CLSI); format: cell-based; conditions: Staphylococcus aureus
Description: as §4, §5, §6

L49 S. pyogenes C203 = experiment: MIC, broth microdilution (CLSI); format: cell-based; conditions: Streptococcus pyogenes
Description: as §4, §5, §6

L559 E. faecalis = experiment: MIC, broth microdilution (CLSI); format: cell-based; conditions: Enterococcus faecalis
Description: as §4, §5, §6

L1730 S. haemolyticus = experiment: MIC, broth microdilution (CLSI); format: cell-based; conditions: Staphylococcus haemolyticus
Description: as §4, §5, §6

L3294 M. catarrhalis = experiment: MIC, broth microdilution (CLSI); format: cell-based; conditions: Moraxella catarrhalis
Description: as §4, §5, §6

L44 S. pneumoniae = experiment: MIC, broth microdilution (CLSI); format: cell-based; conditions: Streptococcus pneumoniae
Description: as §4, §5, §6

L100 S. aureus ATCC 6538 = experiment: MIC, broth microdilution (CLSI); format: cell-based; conditions: Staphylococcus aureus, ATCC6538
Description: as §4, §5, §6

[3] = system: L1729 S. haemolyticus MDR; experiment: MIC, broth microdilution (CLSI); format: cell-based; conditions: Staphylococcus haemolyticus
Description: as §4, §5, §6

[4] = L2048 B. cenocepacia, read-out: MIC
[5] = ATCC19636, L819 S. aureus Smith ATCC19636, CAMHB, read-out: MIC
[6] = ATCC19636, L819 S. aureus Smith, +30% SB (bovine serum), read-out: MIC
[7] = +30% SB (bovine serum), read-out: MIC
[8] = Candida albicans, L145 C. albicans, RPMI, inoculum 10^4 CFU/mL, read-out: MIC
[9] = L3030 A. baumannii, read-out: MIC
[10] = L47 E. coli, SKF 12140, CAMHB, read-out: MIC
[11] = L1577 S. epidermidis, CAMHB, read-out: MIC
[12] = L568 E. faecium, CAMHB, read-out: MIC
[13] = L1400 S. aureus MRSA, CAMHB, read-out: MIC
[14] = L49 S. pyogenes C203, THB, read-out: MIC
[15] = L559 E. faecalis, CAMHB, read-out: MIC
[16] = L1730 S. haemolyticus, CAMHB, read-out: MIC
[17] = L3294 M. catarrhalis, CAMHB, read-out: MIC
[18] = L44 S. pneumoniae, THB, read-out: MIC
[19] = L100 S. aureus ATCC 6538, CAMHB, read-out: MIC
[20] = L1729 S. haemolyticus MDR, CAMHB, read-out: MIC

Structure (SMILES): COC(=O)c1c(C)cc2c(c1O)[C@]1(O)C(=O)c3cc4c(c(O)c3C(=O)[C@]1(OC)[C@H](O)C2)C(=O)C=C(NC1O[C@@H](C)[C@H](OC2C[C@H](O)[C@H](O)C(C)O2)[C@@H](O)[C@H]1OC)C4=O (stereo partly drawn) [F813, (6R,6aS,14aR)-methyl 11-[(2S,3R,4R,5R,6S)-5-{[(2R,5S,6S)-4,5-dihydroxy-6-methyltetrahydro-2H-pyran-2-yl]oxy}-4-hydroxy-3-methoxy-6-methyltetrahydro-2H-pyran-2-ylamino]-1,6,8,14a-tetrahydroxy-6a-methoxy-3-methyl-7,9,12,14-tetraoxo-5,6,6a,7,9,12,14,14a-octahydrobenzo[α]tetracene-2-carboxylate]
- antibacterial activity (in words) [1]: very high antibacterial activity
- MIC (L2048 B. cenocepacia; [4]): 64 µg/mL (≈ 78.6 µM)
- MIC [2, 5]: 0.125 µg/mL (≈ 0.154 µM)
- MIC [2, 6]: 1 µg/mL (≈ 1.23 µM)
- MIC (L569 E. faecium VanA; [7]): 16 µg/mL (≈ 19.7 µM)
- MIC (L569 E. faecium VanA; CAMHB, read-out: MIC): 4 µg/mL (≈ 4.92 µM)
- MIC (L560 E. faecalis VanA; [7]): 16 µg/mL (≈ 19.7 µM)
- MIC (L560 E. faecalis VanA; CAMHB, read-out: MIC): 4 µg/mL (≈ 4.92 µM)
- MIC (L145 C. albicans; [8]): > 128 µg/mL
- MIC (L3030 A. baumannii; [9]): 128 µg/mL (≈ 157 µM)
- MIC (L47 E. coli, SKF 12140; [10]): 128 µg/mL (≈ 157 µM)
- MIC (L1577 S. epidermidis; [11]): 0.5 µg/mL (≈ 0.614 µM)
- MIC (L568 E. faecium; [12]): 4 µg/mL (≈ 4.92 µM)
- MIC (L1400 S. aureus MRSA; [13]): 0.5 µg/mL (≈ 0.614 µM)
- MIC (L49 S. pyogenes C203; [14]): 0 to 125 µg/mL
- MIC (L559 E. faecalis; [15]): 4 µg/mL (≈ 4.92 µM)
- MIC (L1730 S. haemolyticus; [16]): 0.5 µg/mL (≈ 0.614 µM)
- MIC (L3294 M. catarrhalis; [17]): 0.5 µg/mL (≈ 0.614 µM)
- MIC (L44 S. pneumoniae; [18]): 0.125 µg/mL (≈ 0.154 µM)
- MIC (L100 S. aureus ATCC 6538; [19]): 0.125 µg/mL (≈ 0.154 µM)
- MIC [3, 20]: 0.5 µg/mL (≈ 0.614 µM)

Structure (SMILES): C[C@@H]1[C@H](O)[C@@H](C)/C=C/C=C/C=C/C=C/C=C/C=C/C=C/[C@H](O[C@@H]2O[C@H](C)[C@@H](O)[C@H](N)[C@@H]2O)C[C@@H]2O[C@](O)(C[C@@H](O)C[C@@H](O)[C@H](O)CC[C@@H](O)C[C@@H](O)CC(=O)O[C@H]1C)C[C@H](O)[C@H]2C(=O)O [AmB, Amphotericin B, reference compound]
- MIC (L145 C. albicans; L145 C. albicans, RPMI, inoculum 10^4 CFU/mL): 1 µg/mL (≈ 1.08 µM)

Structure (SMILES): COC(=O)c1c(C)cc2c(c1O)[C@]1(O)C(=O)c3cc4c(c(O)c3C(=O)[C@]1(OC)[C@H](O)C2)C(=O)C=C(NC1O[C@@H](C)[C@H](O)[C@@H](O)[C@H]1OC)C4=O (stereo partly drawn) [F683, 6R,6aS,14aR-methyl-11,6,8,14a-tetrahydroxy-11[(2S,3R,4R,5R,6S)-4,5-dihydroxy-3-methoxy-6-methyltetrahydro-2H-pyran-2-ylamino]-6a-methoxy-3-methyl-7,9,12,14-tetraoxo-5,6,6a,7,9,12,14,14a-octahydrobenzo[α]tetracene-2-carboxylate]
- antibacterial activity (in words) [1]: very high antibacterial activity
- MIC (L2048 B. cenocepacia; [4]): > 128 µg/mL
- MIC [2, 5]: 0.5 µg/mL (≈ 0.731 µM)
- MIC [2, 6]: 8 µg/mL (≈ 11.7 µM)
- MIC (L569 E. faecium VanA; [7]): > 32 µg/mL
- MIC (L569 E. faecium VanA; CAMHB, read-out: MIC): 16 µg/mL (≈ 23.4 µM)
- MIC (L560 E. faecalis VanA; [7]): 32 µg/mL (≈ 46.8 µM)
- MIC (L560 E. faecalis VanA; CAMHB, read-out: MIC): 8 µg/mL (≈ 11.7 µM)
- MIC (L145 C. albicans; [8]): > 128 µg/mL
- MIC (L3030 A. baumannii; [9]): > 128 µg/mL
- MIC (L47 E. coli, SKF 12140; [10]): > 128 µg/mL
- MIC (L1577 S. epidermidis; [11]): 0.5 µg/mL (≈ 0.731 µM)
- MIC (L568 E. faecium; [12]): 16 µg/mL (≈ 23.4 µM)
- MIC (L1400 S. aureus MRSA; [13]): 0.5 µg/mL (≈ 0.731 µM)
- MIC (L49 S. pyogenes C203; [14]): 0.125 µg/mL (≈ 0.183 µM)
- MIC (L559 E. faecalis; [15]): 8 µg/mL (≈ 11.7 µM)
- MIC (L1730 S. haemolyticus; [16]): 0.5 µg/mL (≈ 0.731 µM)
- MIC (L3294 M. catarrhalis; [17]): 0.5 µg/mL (≈ 0.731 µM)
- MIC (L44 S. pneumoniae; [18]): 0.125 µg/mL (≈ 0.183 µM)
- MIC (L100 S. aureus ATCC 6538; [19]): 2 µg/mL (≈ 2.93 µM)
- MIC [3, 20]: 0.5 µg/mL (≈ 0.731 µM)

Structure (SMILES): COC(=O)c1c(C)cc2c(c1O)C1(O)C(=O)c3cc4c(c(O)c3C(=O)C1(OC)[C@H](O)C2)C(=O)C=C(NC1O[C@@H](C)[C@H](OC2C=CC(=O)C(C)O2)[C@@H](O)[C@H]1OC)C4=O (stereo partly drawn) [F793, (6R,6aS,14aR)-methyl 11-[(2S,3R,4R,5R,6S)-4-hydroxy-3-methoxy-6-methyl-5-{[(2S,6S)-6-methyl-5-oxo-5,6-dihydro-2H-pyran-2-yl]oxy}tetrahydro-2H-pyran-2-ylamino]-1,6,8,14a-tetrahydroxy-6a-methoxy-3-methyl-7,9,12,14-tetraoxo-5,6,6a,7,9,12,14,14a-octahydrobenzo[α]tetracene-2-carboxylate]
- antibacterial activity (in words) [1]: very high antibacterial activity
- MIC (L2048 B. cenocepacia): 128 µg/mL (≈ 161 µM)
- MIC ([2]; ATCC19636, L819 S. aureus Smith ATCC19636, CAMHB): 0.5 µg/mL (≈ 0.63 µM)
- MIC ([2]; ATCC19636, L819 S. aureus Smith, +30% SB (bovine serum)): 4 µg/mL (≈ 5.04 µM)
- MIC (L569 E. faecium VanA; +30% SB (bovine serum)): 16 µg/mL (≈ 20.2 µM)
- MIC (L569 E. faecium VanA; CAMHB): 1 µg/mL (≈ 1.26 µM)
- MIC (L560 E. faecalis VanA; +30% SB (bovine serum)): 2 µg/mL (≈ 2.52 µM)
- MIC (L560 E. faecalis VanA; CAMHB): 0.5 µg/mL (≈ 0.63 µM)
- MIC (L145 C. albicans; Candida albicans): > 128 µg/mL
- MIC (L3030 A. baumannii): 128 µg/mL (≈ 161 µM)
- MIC (L47 E. coli, SKF 12140): > 128 µg/mL
- MIC (L1577 S. epidermidis): 0.25 µg/mL (≈ 0.315 µM)
- MIC (L568 E. faecium): 1 µg/mL (≈ 1.26 µM)
- MIC (L1400 S. aureus MRSA; MRSA): 0.5 µg/mL (≈ 0.63 µM)
- MIC (L49 S. pyogenes C203): 0.03 µg/mL (≈ 0.0378 µM)
- MIC (L559 E. faecalis): 0.5 µg/mL (≈ 0.63 µM)
- MIC (L1730 S. haemolyticus): 1 µg/mL (≈ 1.26 µM)
- MIC (L3294 M. catarrhalis): 1 µg/mL (≈ 1.26 µM)
- MIC (L44 S. pneumoniae): 0.06 µg/mL (≈ 0.0756 µM)
- MIC (L100 S. aureus ATCC 6538): 1 µg/mL (≈ 1.26 µM)
- MIC [3]: 1 µg/mL (≈ 1.26 µM)
